Patent US20210284742A1, “METHODS OF TREATING OR PREVENTING MUCORMYCOSIS” (University of Maryland, Baltimore, priority 2018, published 2021)

System: PGR
Test: PGR translocation to the nucleus during R. delemar infection (confocal microscopy)
Type: cell-based, human
Conditions: A549 cells pretreated with Gefitinib 1 h, R. delemar infection 2 h (FIG. 16)
Description: Translocation of host PGR was visualized using the Zeiss LSM Duo confocal microscopy system. 12-mm glass coverslips in 12 well dishes were seeded with A549 alveolar epithelial cells and infected with 2×10^5 R. delemar or R. oryzae that have been incubated in F12K+10% FBS at 37° C. for 2 h. After a 2 h incubation at 37° C., cells were washed with HBSS and fixed with 3% paraformaldehyde. Cells were incubated with anti-PGR (Aviva MS-196-P1, recognizes B) for 1 h or overnight in 0.1% BSA for 1 hour. Coverslips were washed and counterstained with Alexa Fluor 546-labeled goat anti-rabbit or Alexa Fluor 488-goat anti-mouse. After washing, the coverslip will be mounted on a glass slide with a drop of ProLong Gold antifade reagent (Molecular Probes) and viewed by confocal fluorescent microscopy.

COc1cc2ncnc(Nc3ccc(F)c(Cl)c3)c2cc1OCCCN1CCOCC1 [Gefitinib]
translocation of PGR from the cytosol to the nucleus: reduced
